Assays:
Nitric oxide synthase 3 = target: T1, Nitric oxide synthase 3 (Bos taurus, UniProt P29473); assay: Inhibition of bovine recombinant eNOS overexpressed in Escherichia coli using L-arginine as substrate assessed as formation of NO-hemoglobin complex measured up to 180 seconds by hemoglobin capture assay
T1 sequence (P29473 whole entry): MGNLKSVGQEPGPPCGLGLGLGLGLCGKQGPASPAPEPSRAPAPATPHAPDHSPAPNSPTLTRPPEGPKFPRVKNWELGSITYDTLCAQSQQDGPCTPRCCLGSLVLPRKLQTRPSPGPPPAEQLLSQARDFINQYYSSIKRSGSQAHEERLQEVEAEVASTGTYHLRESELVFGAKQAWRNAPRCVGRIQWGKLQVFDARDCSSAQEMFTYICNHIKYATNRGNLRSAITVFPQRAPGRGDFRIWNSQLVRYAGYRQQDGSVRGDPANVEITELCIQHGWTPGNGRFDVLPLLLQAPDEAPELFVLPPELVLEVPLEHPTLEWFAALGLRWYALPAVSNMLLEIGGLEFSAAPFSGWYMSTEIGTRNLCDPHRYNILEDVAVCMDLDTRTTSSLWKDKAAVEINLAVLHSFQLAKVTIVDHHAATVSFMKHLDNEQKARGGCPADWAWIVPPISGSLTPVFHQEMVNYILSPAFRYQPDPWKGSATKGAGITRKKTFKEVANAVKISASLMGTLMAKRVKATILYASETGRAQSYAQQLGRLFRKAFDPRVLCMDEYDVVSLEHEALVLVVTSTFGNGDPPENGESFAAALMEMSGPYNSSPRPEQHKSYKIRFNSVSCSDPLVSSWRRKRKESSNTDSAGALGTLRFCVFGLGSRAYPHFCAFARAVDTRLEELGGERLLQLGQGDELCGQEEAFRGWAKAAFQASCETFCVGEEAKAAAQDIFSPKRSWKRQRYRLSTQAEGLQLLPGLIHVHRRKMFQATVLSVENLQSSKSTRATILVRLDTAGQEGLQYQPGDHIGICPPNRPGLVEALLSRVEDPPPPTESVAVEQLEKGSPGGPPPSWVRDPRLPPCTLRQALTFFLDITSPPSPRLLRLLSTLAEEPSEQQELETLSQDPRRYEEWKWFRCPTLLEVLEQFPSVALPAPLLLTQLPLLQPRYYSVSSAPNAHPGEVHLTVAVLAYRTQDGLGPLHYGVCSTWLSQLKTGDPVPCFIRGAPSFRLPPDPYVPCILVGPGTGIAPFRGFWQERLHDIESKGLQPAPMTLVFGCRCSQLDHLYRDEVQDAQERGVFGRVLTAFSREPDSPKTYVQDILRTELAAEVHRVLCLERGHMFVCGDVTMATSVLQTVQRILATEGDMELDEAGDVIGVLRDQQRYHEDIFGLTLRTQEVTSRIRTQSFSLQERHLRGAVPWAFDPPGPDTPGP

Nitric oxide synthase 1 = Nitric oxide synthase 1 (Rattus norvegicus, UniProt P29476); assay: Inhibition of rat recombinant nNOS overexpressed in Escherichia coli using L-arginine as substrate assessed as formation of NO-hemoglobin complex measured up to 180 seconds by hemoglobin capture assay
[1] = target: T2, Nitric oxide synthase, inducible (Mus musculus, UniProt P29477); assay: Inhibition of mouse recombinant iNOS overexpressed in Escherichia coli using L-arginine as substrate assessed as formation of NO-hemoglobin complex measured up to 180 seconds by hemoglobin capture assay
T2 sequence (P29477 whole entry): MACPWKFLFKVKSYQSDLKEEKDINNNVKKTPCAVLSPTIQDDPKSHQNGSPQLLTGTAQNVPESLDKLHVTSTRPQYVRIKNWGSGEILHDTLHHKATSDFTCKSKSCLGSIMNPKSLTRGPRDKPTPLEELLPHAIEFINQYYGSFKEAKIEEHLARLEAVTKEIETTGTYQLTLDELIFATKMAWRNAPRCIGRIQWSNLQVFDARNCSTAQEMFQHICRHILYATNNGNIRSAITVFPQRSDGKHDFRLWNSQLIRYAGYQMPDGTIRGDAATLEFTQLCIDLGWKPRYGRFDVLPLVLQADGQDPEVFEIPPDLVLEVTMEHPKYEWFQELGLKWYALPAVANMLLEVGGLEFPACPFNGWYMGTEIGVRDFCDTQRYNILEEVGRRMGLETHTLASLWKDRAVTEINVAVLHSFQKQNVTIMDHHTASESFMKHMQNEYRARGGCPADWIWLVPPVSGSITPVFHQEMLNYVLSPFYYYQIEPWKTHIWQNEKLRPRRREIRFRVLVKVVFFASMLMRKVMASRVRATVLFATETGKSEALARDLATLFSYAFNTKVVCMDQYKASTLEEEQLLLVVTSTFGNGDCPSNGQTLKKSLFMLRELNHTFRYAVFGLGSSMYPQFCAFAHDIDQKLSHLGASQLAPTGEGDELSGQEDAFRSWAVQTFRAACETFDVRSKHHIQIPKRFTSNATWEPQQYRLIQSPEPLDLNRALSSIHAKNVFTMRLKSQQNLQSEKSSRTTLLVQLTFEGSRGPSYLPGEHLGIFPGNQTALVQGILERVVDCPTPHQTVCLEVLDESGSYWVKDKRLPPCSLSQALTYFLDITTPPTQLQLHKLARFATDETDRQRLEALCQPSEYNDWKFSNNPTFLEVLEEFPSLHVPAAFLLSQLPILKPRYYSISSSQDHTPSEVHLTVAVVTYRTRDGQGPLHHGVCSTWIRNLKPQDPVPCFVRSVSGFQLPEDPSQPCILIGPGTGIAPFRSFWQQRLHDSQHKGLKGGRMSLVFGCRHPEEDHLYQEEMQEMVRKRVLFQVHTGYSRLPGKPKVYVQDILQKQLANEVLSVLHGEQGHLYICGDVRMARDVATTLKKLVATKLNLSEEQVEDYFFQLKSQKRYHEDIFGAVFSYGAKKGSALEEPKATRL

Nitric oxide synthase 1, sequence (P29476 whole entry): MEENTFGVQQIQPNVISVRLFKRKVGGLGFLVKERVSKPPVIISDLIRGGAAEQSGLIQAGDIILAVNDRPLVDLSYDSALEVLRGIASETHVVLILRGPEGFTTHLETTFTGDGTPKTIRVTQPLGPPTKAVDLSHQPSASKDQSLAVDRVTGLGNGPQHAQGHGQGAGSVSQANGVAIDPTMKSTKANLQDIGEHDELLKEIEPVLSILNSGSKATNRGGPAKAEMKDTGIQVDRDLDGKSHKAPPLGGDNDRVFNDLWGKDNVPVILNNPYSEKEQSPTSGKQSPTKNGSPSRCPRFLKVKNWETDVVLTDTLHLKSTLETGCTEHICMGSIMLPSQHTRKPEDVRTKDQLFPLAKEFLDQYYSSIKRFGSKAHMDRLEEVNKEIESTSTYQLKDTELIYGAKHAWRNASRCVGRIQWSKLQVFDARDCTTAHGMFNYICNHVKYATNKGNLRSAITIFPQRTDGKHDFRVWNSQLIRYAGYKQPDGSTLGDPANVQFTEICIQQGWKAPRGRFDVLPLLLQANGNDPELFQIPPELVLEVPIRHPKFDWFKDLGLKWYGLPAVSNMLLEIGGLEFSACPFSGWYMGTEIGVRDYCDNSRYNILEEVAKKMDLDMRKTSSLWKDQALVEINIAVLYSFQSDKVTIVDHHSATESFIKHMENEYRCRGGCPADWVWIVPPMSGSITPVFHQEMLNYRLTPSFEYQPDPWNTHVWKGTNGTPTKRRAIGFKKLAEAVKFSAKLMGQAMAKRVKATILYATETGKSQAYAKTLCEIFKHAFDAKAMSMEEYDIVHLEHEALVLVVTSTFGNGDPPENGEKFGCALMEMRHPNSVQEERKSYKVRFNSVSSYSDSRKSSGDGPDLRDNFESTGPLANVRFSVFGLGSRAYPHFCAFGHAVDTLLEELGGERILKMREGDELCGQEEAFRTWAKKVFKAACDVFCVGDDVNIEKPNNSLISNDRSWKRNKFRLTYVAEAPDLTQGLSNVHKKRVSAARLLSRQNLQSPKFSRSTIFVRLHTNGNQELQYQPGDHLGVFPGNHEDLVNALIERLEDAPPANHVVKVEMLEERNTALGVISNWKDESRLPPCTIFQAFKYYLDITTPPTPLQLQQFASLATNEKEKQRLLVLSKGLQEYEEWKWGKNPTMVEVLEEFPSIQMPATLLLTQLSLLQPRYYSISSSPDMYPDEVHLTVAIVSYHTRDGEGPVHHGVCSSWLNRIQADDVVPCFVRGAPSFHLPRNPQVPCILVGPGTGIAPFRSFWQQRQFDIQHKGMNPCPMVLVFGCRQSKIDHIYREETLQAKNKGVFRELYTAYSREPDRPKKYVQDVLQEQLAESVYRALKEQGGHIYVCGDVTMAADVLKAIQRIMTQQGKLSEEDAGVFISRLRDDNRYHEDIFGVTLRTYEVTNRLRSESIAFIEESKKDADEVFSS

Ki (Nitric oxide synthase 3): 6.73 µM | Ki (Nitric oxide synthase 1): 0.0097 µM | Ki [1]: 2.87 µM
Structure (SMILES): Cc1cc(N)nc(COC[C@H]2C[C@H](OCc3cc(C)cc(N)n3)CN2)c1

— ChEMBL document CHEMBL3108683, “An Accessible Chiral Linker to Enhance Potency and Selectivity of Neuronal Nitric Oxide Synthase Inhibitors” (ACS Med Chem Lett, 2014)
